Patent publication US20100233158A1, “INDUCTION OF IMMUNE TOLERANCE” (Genzyme Corporation, priority 2002, published 2010)

System: cardiac allograft rejection
Assay: Heart transplant rejection mouse model (C57/BL6 heart into Balb/c recipient, total MHC mismatch)
Type: in vivo, mice
Conditions: Compound 1 alone, 75 mg/kg/day for fourteen days following surgery; untreated controls rejected after ten days; p<0.001
Description: The ability of a combination therapy of rapamycin and Compound 1 to inhibit transplant rejection in a mouse model was tested. […] Following surgery, the mice were divided into the following treatment groups: • Group I is a control group that was untreated. • Group II was treated with Compound 1 at a dose of 75 mg/kg/day subcutaneously for fourteen days following surgery. • Group III was treated with rapamycin at a dose of 0.3 mg/kg/day intraperitoneally for three days following surgery. • Group IV was treated with Compound 1 at a dose of 75 mg/kg/day intraperitoneally for fourteen days following surgery and with rapamycin at a dose of 0.3 mg/kg/day intraperitoneally for three days following surgery.

With `N#Cc1cccc(C(C(=O)NCC(c2ccccc2)c2ccccc2)N(CCc2c[nH]cn2)C(=O)c2ccccc2C(=O)c2ccccc2)c1` (stereo not shown) [Compound 1] the “delay in the onset of rejection” value was “two to three”.
